Results from publication PMC7932555, “A diffusible signal factor of the intestine dictates Salmonella invasion through its direct control of the virulence activator HilD” (PLoS Pathogens, 2021).
Where a chain is given by its changes, count along the chain named.

Tests used:
Test in all cases: HilD half-life (degradation) assay by western blot
Type in all cases: cell-based
HilD [1] = biological target: T1, HilD (Salmonella typhimurium, UniProt P0CL08, K43A); conditions: HilD K43A-3XFLAG; 20 μM fatty acid
T1 construct: hilD with a C-terminal 3XFLAG tag was cloned into pWSK29 under control of the tetRA promoter; expressed in transfected cells; host or cells: Salmonella Typhimurium strain carrying pWSK29-PtetRA-hilD-3XFLAG (background with chromosomal hilD, hilC and rtsA null)
T1 sequence (P0CL08 1-309 K43A): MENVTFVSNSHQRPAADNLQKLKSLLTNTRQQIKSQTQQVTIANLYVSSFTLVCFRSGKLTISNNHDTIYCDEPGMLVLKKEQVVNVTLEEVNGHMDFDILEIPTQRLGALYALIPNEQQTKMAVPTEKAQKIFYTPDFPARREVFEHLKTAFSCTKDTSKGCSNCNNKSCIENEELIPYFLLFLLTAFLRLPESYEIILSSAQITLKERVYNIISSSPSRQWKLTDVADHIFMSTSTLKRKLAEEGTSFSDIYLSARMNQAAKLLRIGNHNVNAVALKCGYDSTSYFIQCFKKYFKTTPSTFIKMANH
Description: (§1) The HilD half-life was assessed as previously described. Salmonella strains having plasmids with tetracycline-inducible hilD or its mutated sequence with a C-terminal 3XFLAG tag and a sipB::lacZ fusion (for invasion gene expression assessment) were grown overnight and then diluted 1:100 into LB buffered with 100 mM MOPS (pH 6.7) with appropriate antibiotics and fatty acids or control solvents. After 2 hours of growth, aliquots were collected to quantitate sipB::lacZ expression in a β-galactosidase assay. Individual cultures were then equilibrated to an OD600 of 1.0 to ensure equal density at the half-life assay beginning point. New protein production was halted by addition of a cocktail of antibiotics (rifampin, streptomycin and spectinomycin). These cultures were incubated at 37°C and aliquots were collected every 30 minutes for 2 hours. Samples were lysed in 5X sample buffer, boiled, and immunoblotted with an anti-FLAG antibody to monitor HilD.

HilD [2] = biological target: T2, HilD (Salmonella typhimurium, UniProt P0CL08, R267A); conditions: HilD R267A-3XFLAG; 20 μM fatty acid
T2 construct: hilD with a C-terminal 3XFLAG tag was cloned into pWSK29 under control of the tetRA promoter; expressed in transfected cells; host or cells: Salmonella Typhimurium strain carrying pWSK29-PtetRA-hilD-3XFLAG (background with chromosomal hilD, hilC and rtsA null)
T2 sequence (P0CL08 1-309 R267A): T1 sequence (P0CL08 1-309 K43A) with A43K, R267A
Description: as §1

HilD [3] = biological target: T3, HilD (Salmonella typhimurium, UniProt P0CL08, K294A); conditions: HilD K294A-3XFLAG; 20 μM fatty acid
T3 construct: hilD with a C-terminal 3XFLAG tag was cloned into pWSK29 under control of the tetRA promoter; expressed in transfected cells; host or cells: Salmonella Typhimurium strain carrying pWSK29-PtetRA-hilD-3XFLAG (background with chromosomal hilD, hilC and rtsA null)
T3 sequence (P0CL08 1-309 K294A): T1 sequence (P0CL08 1-309 K43A) with A43K, K294A
Description: as §1

HilD [4] = biological target: T4, HilD (Salmonella typhimurium, UniProt P0CL08); conditions: wild type HilD-3XFLAG; grown with 20 μM fatty acid for two hours, protein expression halted
T4 construct: hilD with a C-terminal 3XFLAG tag was cloned into pWSK29 under control of the tetRA promoter; expressed in transfected cells; host or cells: Salmonella Typhimurium strain carrying pWSK29-PtetRA-hilD-3XFLAG (background with chromosomal hilD, hilC and rtsA null)
T4 sequence (P0CL08 1-309): T1 sequence (P0CL08 1-309 K43A) with A43K
Description: as §1

HilD [5] = biological target: T5, HilD (Salmonella typhimurium, UniProt P0CL08, K293A); conditions: HilD K293A-3XFLAG; 20 μM fatty acid
T5 construct: hilD with a C-terminal 3XFLAG tag was cloned into pWSK29 under control of the tetRA promoter; expressed in transfected cells; host or cells: Salmonella Typhimurium strain carrying pWSK29-PtetRA-hilD-3XFLAG (background with chromosomal hilD, hilC and rtsA null)
T5 sequence (P0CL08 1-309 K293A): T1 sequence (P0CL08 1-309 K43A) with A43K, K293A
Description: as §1

With `CCCCCCCCCCCCC/C=C\C(=O)O` [c2-HDA, cis-2-hexadecenoic acid] the HilD degradation (HilD [1]) was “degraded as rapidly as wild type HilD”, the HilD degradation (HilD [2]) was “protected from degradation” and the HilD degradation (HilD [3]) was “protected from degradation”. For the same compound, the HilD degradation (HilD [4]) was “Rapid degradation” and the HilD degradation (HilD [5]) was “protected from degradation”.

In the case of `CCCCCCCCCCCCC/C=C/C(=O)O` [t2-HDA, trans-2-hexadecenoic acid], the HilD degradation (HilD [1]) is reported as “escaped degradation”, the HilD degradation (HilD [2]) is reported as “escaped degradation” and the HilD degradation (HilD [3]) is reported as “rapidly degraded”. For the same compound, the HilD degradation (HilD [4]) was “degraded” and the HilD degradation (HilD [5]) was “rapidly degraded”.
